Publication PMC10382935 (The Cell Surface, 2023)

Target: T1, CRD DC-SIGN (carbohydrate recognition domain of DC-SIGN, 15N labelled) (Homo sapiens, UniProt Q9NNX6)
T1 sequence (Q9NNX6 250-404 limits assumed): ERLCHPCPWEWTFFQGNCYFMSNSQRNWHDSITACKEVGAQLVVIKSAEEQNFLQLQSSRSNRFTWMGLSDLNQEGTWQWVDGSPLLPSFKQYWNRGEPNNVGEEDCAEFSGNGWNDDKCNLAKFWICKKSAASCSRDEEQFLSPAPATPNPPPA
Assay: 1H, […]-HSQC NMR titration
Assay type: binding

Row | Structure (SMILES) | Kd
1 | NCCCO[C@H]1O[C@H](CO)[C@@H](O)[C@H](O)[C@@H]1O[C@H]1O[C@H](CO)[C@@H](O)[C@H](O)[C@@H]1O[C@H]1O[C@H](CO)[C@@H](O)[C@H](O[C@H]2O[C@H](CO)[C@@H](O)[C@H](O)[C@@H]2O[C@H]2O[C@H](CO)[C@@H](O)[C@H](O)[C@@H]2O)[C@@H]1O [compound 29, pentasaccharide 29] | ~600 µM
2 | NCCCO[C@H]1O[C@H](CO)[C@@H](O)[C@H](O)[C@@H]1O[C@H]1O[C@H](CO)[C@@H](O)[C@H](O)[C@@H]1O[C@H]1O[C@H](CO)[C@@H](O)[C@H](O)[C@@H]1O[C@H]1O[C@H](CO)[C@@H](O)[C@H](O[C@H]2O[C@H](CO)[C@@H](O)[C@H](O)[C@@H]2O[C@H]2O[C@H](CO)[C@@H](O)[C@H](O)[C@@H]2O)[C@@H]1O [compound 30, hexasaccharide 30] | ~1100 µM
